Target: ROCK2 (Homo sapiens (Human), UniProt O75116)
Assay: ROCK2 kinase inhibition assay (LABCHIP peptide phosphorylation)
Format: biochemical
Conditions: 5 μM ATP, 1.5 μM peptide substrate
Procedure: The effectiveness of compounds of the present invention as ROCK inhibitors can be determined in a 30 μL, assay containing 20 mM HEPES, pH 7.5, 20 mM MgCl2, 0.015% Brij-35, 4 mM DTT, 5 μM ATP and 1.5 μM peptide substrate (FITC-AHA-AKRRRLSSLRA-OH). Compounds were dissolved in DMSO so that the final concentration of DMSO was <2%, and the reaction was initiated with Rho kinase variants. After incubation, the reaction was terminated by the addition of EDTA and the phosphorylated and non-phosphorylated peptides separated using a LABCHIP® 3000 Reader (Caliper Life Sciences). […] Compounds were tested in dose-response format, and the inhibition of kinase activity was calculated at each concentration of compound. The inhibition data were fit using a curve-fitting program to determine the IC50; i.e., the concentration of compound required to inhibit 50% of kinase activity.
Representative Examples were tested in the ROCK2 assay described above and found having ROCK2 inhibitory activity. The ranges of the ROCK2 IC50 values are as follows: ROCK2 IC50: ++++(<10 nM)+++(10-100 nM)++(100-500 nM)+(500-2000 nM)

ROCK2, sequence (O75116 whole entry, species assumed): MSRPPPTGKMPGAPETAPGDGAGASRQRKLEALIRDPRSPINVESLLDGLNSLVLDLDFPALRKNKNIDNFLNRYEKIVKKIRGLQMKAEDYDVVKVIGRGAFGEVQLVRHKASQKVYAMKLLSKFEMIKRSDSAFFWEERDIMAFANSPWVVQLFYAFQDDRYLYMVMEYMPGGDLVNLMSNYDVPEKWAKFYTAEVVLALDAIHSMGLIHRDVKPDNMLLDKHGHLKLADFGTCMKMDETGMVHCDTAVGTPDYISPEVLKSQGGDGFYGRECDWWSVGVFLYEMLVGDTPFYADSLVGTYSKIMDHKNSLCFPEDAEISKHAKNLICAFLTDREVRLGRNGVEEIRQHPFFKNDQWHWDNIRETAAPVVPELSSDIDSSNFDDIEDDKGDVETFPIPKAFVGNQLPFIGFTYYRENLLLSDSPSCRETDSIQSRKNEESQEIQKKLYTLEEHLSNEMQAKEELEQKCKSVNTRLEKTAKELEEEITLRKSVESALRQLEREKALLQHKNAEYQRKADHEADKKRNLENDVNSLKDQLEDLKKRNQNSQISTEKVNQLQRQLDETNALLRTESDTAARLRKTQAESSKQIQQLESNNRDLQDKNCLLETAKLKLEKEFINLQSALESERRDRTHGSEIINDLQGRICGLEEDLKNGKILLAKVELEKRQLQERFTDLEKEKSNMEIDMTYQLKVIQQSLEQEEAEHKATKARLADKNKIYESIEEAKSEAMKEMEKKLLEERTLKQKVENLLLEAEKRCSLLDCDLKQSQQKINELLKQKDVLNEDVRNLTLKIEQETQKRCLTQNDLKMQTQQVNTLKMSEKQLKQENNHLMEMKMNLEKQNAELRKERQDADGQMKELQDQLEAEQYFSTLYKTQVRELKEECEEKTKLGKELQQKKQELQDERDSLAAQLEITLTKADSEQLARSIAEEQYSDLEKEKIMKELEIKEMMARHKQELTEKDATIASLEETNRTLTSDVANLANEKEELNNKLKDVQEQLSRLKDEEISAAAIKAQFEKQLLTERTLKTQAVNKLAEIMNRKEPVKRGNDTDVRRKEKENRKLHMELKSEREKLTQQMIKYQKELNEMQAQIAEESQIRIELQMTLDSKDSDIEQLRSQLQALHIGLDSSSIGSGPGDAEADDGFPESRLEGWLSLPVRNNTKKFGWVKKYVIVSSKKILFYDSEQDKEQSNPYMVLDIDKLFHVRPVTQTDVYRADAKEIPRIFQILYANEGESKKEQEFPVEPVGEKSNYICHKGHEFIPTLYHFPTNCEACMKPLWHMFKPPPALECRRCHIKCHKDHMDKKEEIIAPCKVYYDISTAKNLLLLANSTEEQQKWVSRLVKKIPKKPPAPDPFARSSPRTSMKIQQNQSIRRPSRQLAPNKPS

Work on `O=C1N(Cc2cc(F)cc(F)c2)CCN1c1ccc2c(n1)OCc1n[nH]cc1-2` [Example 21, 1-(3,5-difluorobenzyl)-3-(2,4-dihydropyrazolo[4′,3′:4,5]pyrano[2,3-b]pyridin-7-yl)imidazolidin-2-one] yielded an IC50 of 10 to 100 nM.

Work on `COc1cccc(N[C@@H]2CCN(c3ccc4c(c3)CCc3n[nH]cc3-4)C2=O)c1` [Example 9, (R)-1-(4,5-dihydro-2H-benzo[e]indazol-7-yl)-3-((3-methoxyphenyl)amino)pyrrolidin-2-one] yielded an IC50 of less than 10 nM.

Work on `O=C1C(Nc2ccc3ncsc3c2)CCN1c1ccc2c(n1)OCc1n[nH]cc1-2` (racemic) [Example 32, 3-(benzo[d]thiazol-6-ylamino)-1-(2,4-dihydropyrazolo[4′,3′:4,5]pyrano[2,3-b]pyridin-7-yl)pyrrolidin-2-one] yielded an IC50 of 500 to 2000 nM.

`COc1cccc(CN2CCN(c3ccc4c(n3)OCc3n[nH]cc3-4)C2=O)c1` [Example 15, 1-(2,4-dihydropyrazolo[4′,3′:4,5]pyrano[2,3-b]pyridin-7-yl)-3-(3-methoxybenzyl)imidazolidin-2-one] gave an IC50 of less than 10 nM.

`COc1cccc(NC2CCN(c3ccc4c(c3)OCc3n[nH]cc3-4)C2=O)c1` (single isomer, unassigned) [Example 10, 1-(2,4-dihydrochromeno[3,4-c]pyrazol-7-yl)-3-((3-methoxyphenyl)amino)pyrrolidin-2-one] showed an IC50 of less than 10 nM.

Work on `O=C1N(c2ccc3c(c2)CCc2n[nH]cc2-3)CCC12Cc1ccccc1N2` (single isomer, unassigned) [Example 6, 1′-(4,5-dihydro-2H-benzo[e]indazol-7-yl)spiro[indoline-2,3′-pyrrolidin]-2′-one] yielded an IC50 of less than 10 nM.

`COc1cccc(NC2CCN(c3ccc4c(c3)OCc3n[nH]cc3-4)C2=O)c1` (racemic) [Example 13, 1-(2,4-dihydrochromeno[3,4-c]pyrazol-7-yl)-3-((3-methoxyphenyl)amino)pyrrolidin-2-one] gave an IC50 of less than 10 nM.

`COc1cccc(CNC(=O)Nc2ccc3c(n2)OCc2n[nH]cc2-3)c1` [Example 5, 1-(2,4-dihydropyrazolo[4′,3′:4,5]pyrano[2,3-b]pyridin-7-yl)-3-(3-methoxybenzyl)urea] was tested, and the IC50 was 10 to 100 nM.

Compound `COc1cccc([C@@H](C)N2CCN(c3ccc4c(c3)CCc3n[nH]cc3-4)C2=O)c1` [Example 7, (R)-1-(4,5-dihydro-2H-benzo[e]indazol-7-yl)-3-(1-(3-methoxyphenyl)ethyl)imidazolidin-2-one] has an IC50 of less than 10 nM.

`O=C1N(Cc2cccc(F)c2)CCN1c1ccc2c(n1)OCc1n[nH]cc1-2` [Example 25, 1-(2,4-dihydropyrazolo[4′,3′:4,5]pyrano[2,3-b]pyridin-7-yl)-3-(3-fluorobenzyl)imidazolidin-2-one] was tested, and the IC50 was 100 to 500 nM.

Work on `Cc1ccc(F)c(CN2CCN(c3ccc4c(n3)OCc3n[nH]cc3-4)C2=O)c1` [Example 20, 1-(2,4-dihydropyrazolo[4′,3′:4,5]pyrano[2,3-b]pyridin-7-yl)-3-(2-fluoro-5-methylbenzyl)imidazolidin-2-one] yielded an IC50 of 10 to 100 nM.

In the case of `COc1cccc(CN2CCN(c3ccc4c(c3)OCc3n[nH]cc3-4)C2=O)c1` [Example 14, 1-(2,4-dihydrochromeno[3,4-c]pyrazol-7-yl)-3-(3-methoxybenzyl)imidazolidin-2-one], the IC50 is reported as less than 10 nM.

Work on `O=C1N(c2ccc3c(c2)CCc2n[nH]cc2-3)CCC12Cc1ccccc1N2` (racemic) [Example 1, (rac)-1′-(4,5-dihydro-2H-benzo[e]indazol-7-yl)spiro[indoline-2,3′-pyrrolidin]-2′-one] yielded an IC50 of less than 10 nM.

`Cc1c(F)cccc1NC1CCN(c2ccc3c(n2)OCc2n[nH]cc2-3)C1=O` (stereo not drawn) [Example 24, 1-(2,4-dihydropyrazolo[4′,3′:4,5]pyrano[2,3-b]pyridin-7-yl)-3-((3-fluoro-2-methylphenyl)amino)pyrrolidin-2-one] showed an IC50 of 100 to 500 nM.

`COc1cc(F)cc(NC2CCN(c3ccc4c(n3)OCc3n[nH]cc3-4)C2=O)c1` (racemic) [Example 12, 1-(2,4-dihydropyrazolo[4′,3′:4,5]pyrano[2,3-b]pyridin-7-yl)-3-((3-fluoro-5-methoxyphenyl)amino)pyrrolidin-2-one] was tested, and the IC50 was 10 to 100 nM.

Work on `COc1cccc(NC2CCN(c3ccc4c(c3)OCc3n[nH]cc3-4)C2=O)c1` (single isomer, unassigned) [Example 17, 1-(2,4-dihydrochromeno[3,4-c]pyrazol-7-yl)-3-((3-methoxyphenyl)amino)pyrrolidin-2-one] yielded an IC50 of 10 to 100 nM.

In the case of `COc1cccc(CN2CCN(c3ccc4c(c3)CCc3n[nH]cc3-4)C2=O)c1` [Example 2, 1-(4,5-dihydro-2H-benzo[e]indazol-7-yl)-3-(3-methoxybenzyl)imidazolidin-2-one], the IC50 is reported as less than 10 nM.

In the case of `Cc1cc(CN2CCN(c3ccc4c(n3)OCc3n[nH]cc3-4)C2=O)ccc1F` [Example 26, 1-(2,4-dihydropyrazolo[4′,3′:4,5]pyrano[2,3-b]pyridin-7-yl)-3-(4-fluoro-3-methylbenzyl)imidazolidin-2-one], the IC50 is reported as 100 to 500 nM.

Compound `COc1cccc(N[C@H]2CCN(c3ccc4c(c3)CCc3n[nH]cc3-4)C2=O)c1` [Example 3, (S)-1-(4,5-dihydro-21-benzo[e]indazol-7-yl)-3-((3-methoxyphenyl)amino)pyrolidin-2-one] has an IC50 of less than 10 nM.

With `Cc1cc(F)ccc1CN1CCN(c2ccc3c(n2)OCc2n[nH]cc2-3)C1=O` [Example 28, 1-(2,4-dihydropyrazolo[4′,3′:4,5]pyrano[2,3-b]pyridin-7-yl)-3-(4-fluoro-2-methylbenzyl)imidazolidin-2-one] the IC50 was 100 to 500 nM.

`N#Cc1cccc(NC2CCN(c3ccc4c(n3)OCc3n[nH]cc3-4)C2=O)c1` (racemic) [Example 34, 3-((1-(2,4-dihydropyrazolo[4′,3′:4,5]pyrano[2,3-b]pyridin-7-yl)-2-oxopyrrolidin-3-yl)amino)benzonitrile] showed an IC50 of 500 to 2000 nM.

For `O=C1N(Cc2cc(F)ccc2F)CCN1c1ccc2c(n1)OCc1n[nH]cc1-2` [Example 30, 1-(2,5-difluorobenzyl)-3-(2,4-dihydropyrazolo[4′,3′:4,5]pyrano[2,3-b]pyridin-7-yl)imidazolidin-2-one], the IC50 was 100 to 500 nM.

With `O=C1N(Cc2c(F)cccc2F)CCN1c1ccc2c(n1)OCc1n[nH]cc1-2` [Example 33, 1-(2,6-difluorobenzyl)-3-(2,4-dihydropyrazolo[4′,3′:4,5]pyrano[2,3-b]pyridin-7-yl)imidazolidin-2-one] the IC50 was 500 to 2000 nM.

Work on `CC(C)(C)c1cccc(CN2CCN(c3ccc4c(n3)OCc3n[nH]cc3-4)C2=O)c1` [Example 31, 1-(3-(tert-butyl)benzyl)-3-(2,4-dihydropyrazolo[4′,3′:4,5]pyrano[2,3-b]pyridin-7-yl)imidazolidin-2-one] yielded an IC50 of 500 to 2000 nM.

For `COc1cccc(NC2CCN(c3ccc4c(n3)OCc3n[nH]cc3-4)C2=O)c1` (racemic) [Example 11, 1-(2,4-dihydropyrazolo[4′,3′:4,5]pyrano[2,3-b]pyridin-7-yl)-3-((3-methoxyphenyl)amino)pyrrolidin-2-one], the IC50 was 10 to 100 nM.

With `COc1cccc(CN2CCN(c3ccc4c(c3)CCc3n[nH]c(C)c3-4)C2=O)c1` [Example 19, 1-(3-methoxybenzyl)-3-(1-methyl-4,5-dihydro-2H-benzo[e]indazol-7-yl)imidazolidin-2-one] the IC50 was 10 to 100 nM.

In the case of `Cc1c(F)cccc1CN1CCN(c2ccc3c(n2)OCc2n[nH]cc2-3)C1=O` [Example 22, 1-(2,4-dihydropyrazolo[4′,3′:4,5]pyrano[2,3-b]pyridin-7-yl)-3-(3-fluoro-2-methylbenzyl)imidazolidin-2-one], the IC50 is reported as 10 to 100 nM.

Reference: patent US10654860B2, “Tricyclic rho kinase inhibitors” (BRISTOL-MYERS SQUIBB COMPANY, priority 2016, dated 2020)
